From PubChem BioAssay AID1963439 (Molecular Pharmacology Branch, DTP, NCI, 2024)

Tested on: NCI-H196 complex spheroids with HUVEC/MSC, growth % T/C
Test: Anticancer human tumor NCI-H196 cell line growth inhibition [Asc];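 also: spheroids exposed to compound for 7 days before measurement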;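 as to viability, T/C: 100% = DMSO vehicle control wells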
Conditions: for IC50: curve of first compound; for viability, T/C: stronger effect = lower value
Procedure, shortened: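 Spheroid model: tumor line + HUVEC + hMSC. Single agents and combinations; top conc. at/near clinical Cmax (10 microM if undetermined), half-log dilutions. DMSO stocks at 800-fold test concentration.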

[1] = second compound 0.01 µM, first compound 0.00316 µM
[2] = second compound 0.01 µM, first compound 0.01 µM
[3] = second compound 0.01 µM, first compound 0.0316 µM
[4] = second compound 0.01 µM, first compound 0.1 µM
[5] = second compound 0.0316 µM, first compound 0.00316 µM
[6] = second compound 0.0316 µM, first compound 0.01 µM
[7] = second compound 0.0316 µM, first compound 0.0316 µM
[8] = second compound 0.0316 µM, first compound 0.1 µM
[9] = second compound 0.1 µM, first compound 0.00316 µM
[10] = second compound 0.1 µM, first compound 0.01 µM
[11] = second compound 0.1 µM, first compound 0.0316 µM
[12] = second compound 0.1 µM, first compound 0.1 µM
[13] = second compound 0.316 µM, first compound 0.00316 µM
[14] = second compound 0.316 µM, first compound 0.01 µM
[15] = second compound 0.316 µM, first compound 0.0316 µM
[16] = second compound 0.316 µM, first compound 0.1 µM
[17] = second compound 1 µM, first compound 0.00316 µM
[18] = second compound 1 µM, first compound 0.01 µM
[19] = second compound 1 µM, first compound 0.0316 µM
[20] = second compound 1 µM, first compound 0.1 µM

**Q.** How did the IC50 (second compound 0.03 µM) turn out when `NC(=O)C(=Cn1cnc(-c2cc(C(F)(F)F)cc(C(F)(F)F)c2)n1)c1cncnc1` + CCN1C(C(=O)NC23CCC(C(=O)O)(CC2)CC3)C(c2cccc(Cl)c2F)C2(C(=O)Nc3cc(Cl)ccc32)C12CCCCC2 was run?
**A.** 22.1 nM

**Q.** And the IC50 (second compound 0.0949 µM)?
**A.** 24.3 nM

**Q.** What about the IC50 (second compound 0.3 µM) of the same molecule?
**A.** 26.2 nM

**Q.** And the IC50 (second compound 0.949 µM)?
**A.** 26.4 nM

**Q.** And the IC50 (second compound 3 µM)?
**A.** 26.8 nM

**Q.** And the viability, T/C (second compound 0.03 µM, first compound 0.000949 µM)?
**A.** 110%

**Q.** And the viability, T/C (second compound 0.03 µM, first compound 0.003 µM)?
**A.** 99.3%

**Q.** And the viability, T/C (second compound 0.03 µM, first compound 0.00949 µM)?
**A.** 79.1%

**Q.** And the viability, T/C (second compound 0.03 µM, first compound 0.03 µM)?
**A.** 41.6%

**Q.** What about the viability, T/C (second compound 0.03 µM, first compound 0.0949 µM) of the same molecule?
**A.** 7.35%

**Q.** What about the viability, T/C (second compound 0.03 µM, first compound 0.3 µM) of the same molecule?
**A.** 4.55%

**Q.** What about the viability, T/C (second compound 0.0949 µM, first compound 0.000949 µM) of the same molecule?
**A.** 100%

**Q.** And the viability, T/C (second compound 0.0949 µM, first compound 0.003 µM)?
**A.** 103%

**Q.** What about the viability, T/C (second compound 0.0949 µM, first compound 0.00949 µM) of the same molecule?
**A.** 85.2%

**Q.** What about the viability, T/C (second compound 0.0949 µM, first compound 0.03 µM) of the same molecule?
**A.** 42.6%

**Q.** And the viability, T/C (second compound 0.0949 µM, first compound 0.0949 µM)?
**A.** 8.3%

**Q.** And the viability, T/C (second compound 0.0949 µM, first compound 0.3 µM)?
**A.** 3.76%

**Q.** What about the viability, T/C (second compound 0.3 µM, first compound 0.000949 µM) of the same molecule?
**A.** 108%

**Q.** And the viability, T/C (second compound 0.3 µM, first compound 0.003 µM)?
**A.** 101%

**Q.** What about the viability, T/C (second compound 0.3 µM, first compound 0.00949 µM) of the same molecule?
**A.** 90.4%

**Q.** And the viability, T/C (second compound 0.3 µM, first compound 0.03 µM)?
**A.** 46.1%

**Q.** What about the viability, T/C (second compound 0.3 µM, first compound 0.0949 µM) of the same molecule?
**A.** 4.78%

**Q.** What about the viability, T/C (second compound 0.3 µM, first compound 0.3 µM) of the same molecule?
**A.** 5.31%

**Q.** And the viability, T/C (second compound 0.949 µM, first compound 0.000949 µM)?
**A.** 116%

**Q.** And the viability, T/C (second compound 0.949 µM, first compound 0.003 µM)?
**A.** 109%

**Q.** And the viability, T/C (second compound 0.949 µM, first compound 0.00949 µM)?
**A.** 93.1%

**Q.** What about the viability, T/C (second compound 0.949 µM, first compound 0.03 µM) of the same molecule?
**A.** 46.6%

**Q.** What about the viability, T/C (second compound 0.949 µM, first compound 0.0949 µM) of the same molecule?
**A.** 4.71%

**Q.** What about the viability, T/C (second compound 0.949 µM, first compound 0.3 µM) of the same molecule?
**A.** 5.06%

**Q.** What about the viability, T/C (second compound 3 µM, first compound 0.000949 µM) of the same molecule?
**A.** 124%

**Q.** And the viability, T/C (second compound 3 µM, first compound 0.003 µM)?
**A.** 119%

**Q.** What about the viability, T/C (second compound 3 µM, first compound 0.00949 µM) of the same molecule?
**A.** 106%

**Q.** And the viability, T/C (second compound 3 µM, first compound 0.03 µM)?
**A.** 44.6%

**Q.** And the viability, T/C (second compound 3 µM, first compound 0.0949 µM)?
**A.** 3.65%

**Q.** And the viability, T/C (second compound 3 µM, first compound 0.3 µM)?
**A.** 4.05%

**Q.** `NC1CCC(NC2CC2c2ccccc2)CC1` (stereo not given) + CNC(C)C(=O)NC1CN(S(=O)(=O)c2cccc(S(=O)(=O)N3CCC4CCC(C(=O)NC(c5ccccc5)c5ccccc5)N4C(=O)C(NC(=O)C(C)NC)C3)c2)CCC2CCC(C(=O)NC(c3ccccc3)c3ccccc3)N2C1=O was tested. Which IC50 (second compound 0.01 µM) did it give?
**A.** < 0.316 nM

**Q.** And the IC50 (second compound 0.0316 µM)?
**A.** < 0.316 nM

**Q.** What about the IC50 (second compound 0.1 µM) of the same molecule?
**A.** < 0.316 nM

**Q.** And the IC50 (second compound 0.316 µM)?
**A.** < 0.316 nM

**Q.** What about the IC50 (second compound 1 µM) of the same molecule?
**A.** < 0.316 nM

**Q.** And the viability, T/C (second compound 0.01 µM, first compound 0.000316 µM)?
**A.** 4.85%

**Q.** What about the viability, T/C (second compound 0.01 µM, first compound 0.001 µM) of the same molecule?
**A.** 7.42%

**Q.** What about the viability, T/C [1] of the same molecule?
**A.** 7.08%

**Q.** What about the viability, T/C [2] of the same molecule?
**A.** 4.94%

**Q.** What about the viability, T/C [3] of the same molecule?
**A.** 4.47%

**Q.** And the viability, T/C [4]?
**A.** 5.83%

**Q.** And the viability, T/C (second compound 0.0316 µM, first compound 0.000316 µM)?
**A.** 3.28%

**Q.** And the viability, T/C (second compound 0.0316 µM, first compound 0.001 µM)?
**A.** 3.9%

**Q.** What about the viability, T/C [5] of the same molecule?
**A.** 6.09%

**Q.** And the viability, T/C [6]?
**A.** 4.65%

**Q.** What about the viability, T/C [7] of the same molecule?
**A.** 4.22%

**Q.** What about the viability, T/C [8] of the same molecule?
**A.** 4.12%

**Q.** What about the viability, T/C (second compound 0.1 µM, first compound 0.000316 µM) of the same molecule?
**A.** 3.22%

**Q.** And the viability, T/C (second compound 0.1 µM, first compound 0.001 µM)?
**A.** 3.76%

**Q.** What about the viability, T/C [9] of the same molecule?
**A.** 3.15%

**Q.** And the viability, T/C [10]?
**A.** 3.8%

**Q.** And the viability, T/C [11]?
**A.** 2.91%

**Q.** And the viability, T/C [12]?
**A.** 5.63%

**Q.** What about the viability, T/C (second compound 0.316 µM, first compound 0.000316 µM) of the same molecule?
**A.** 3.14%

**Q.** And the viability, T/C (second compound 0.316 µM, first compound 0.001 µM)?
**A.** 3.25%

**Q.** And the viability, T/C [13]?
**A.** 3.34%

**Q.** What about the viability, T/C [14] of the same molecule?
**A.** 2.68%

**Q.** What about the viability, T/C [15] of the same molecule?
**A.** 2.82%

**Q.** What about the viability, T/C [16] of the same molecule?
**A.** 2.95%

**Q.** And the viability, T/C (second compound 1 µM, first compound 0.000316 µM)?
**A.** 3.04%

**Q.** And the viability, T/C (second compound 1 µM, first compound 0.001 µM)?
**A.** 4.43%

**Q.** And the viability, T/C [17]?
**A.** 3.1%

**Q.** What about the viability, T/C [18] of the same molecule?
**A.** 3.47%

**Q.** And the viability, T/C [19]?
**A.** 3.24%

**Q.** And the viability, T/C [20]?
**A.** 2.28%

**Q.** `O=C(c1ccc(F)c(F)c1Nc1ccc(I)cc1F)N1CC(O)([C@@H]2CCCCN2)C1` + CNC(C)C(=O)NC1CN(S(=O)(=O)c2cccc(S(=O)(=O)N3CCC4CCC(C(=O)NC(c5ccccc5)c5ccccc5)N4C(=O)C(NC(=O)C(C)NC)C3)c2)CCC2CCC(C(=O)NC(c3ccccc3)c3ccccc3)N2C1=O was tested. Which IC50 (second compound 0.01 µM) did it give?
**A.** < 3.16 nM

**Q.** And the IC50 (second compound 0.0316 µM)?
**A.** < 3.16 nM

**Q.** And the IC50 (second compound 0.1 µM)?
**A.** < 3.16 nM

**Q.** What about the IC50 (second compound 0.316 µM) of the same molecule?
**A.** < 3.16 nM

**Q.** And the IC50 (second compound 1 µM)?
**A.** < 3.16 nM

**Q.** And the viability, T/C [1]?
**A.** 8.04%

**Q.** What about the viability, T/C [2] of the same molecule?
**A.** 5.36%

**Q.** What about the viability, T/C [3] of the same molecule?
**A.** 5.61%

**Q.** And the viability, T/C [4]?
**A.** 8.2%

**Q.** And the viability, T/C (second compound 0.01 µM, first compound 0.316 µM)?
**A.** 12.4%

**Q.** What about the viability, T/C (second compound 0.01 µM, first compound 1 µM) of the same molecule?
**A.** 17.3%

**Q.** What about the viability, T/C [5] of the same molecule?
**A.** 3.55%

**Q.** And the viability, T/C [6]?
**A.** 6.82%

**Q.** And the viability, T/C [7]?
**A.** 5.25%

**Q.** What about the viability, T/C [8] of the same molecule?
**A.** 3.88%

**Q.** What about the viability, T/C (second compound 0.0316 µM, first compound 0.316 µM) of the same molecule?
**A.** 6.05%

**Q.** What about the viability, T/C (second compound 0.0316 µM, first compound 1 µM) of the same molecule?
**A.** 7.48%

**Q.** What about the viability, T/C [9] of the same molecule?
**A.** 4.86%

**Q.** What about the viability, T/C [10] of the same molecule?
**A.** 5.49%

**Q.** What about the viability, T/C [11] of the same molecule?
**A.** 4.59%

**Q.** What about the viability, T/C [12] of the same molecule?
**A.** 2.13%

**Q.** What about the viability, T/C (second compound 0.1 µM, first compound 0.316 µM) of the same molecule?
**A.** 3.06%

**Q.** What about the viability, T/C (second compound 0.1 µM, first compound 1 µM) of the same molecule?
**A.** 4.14%

**Q.** What about the viability, T/C [13] of the same molecule?
**A.** 7.23%

**Q.** And the viability, T/C [14]?
**A.** 3.09%

**Q.** And the viability, T/C [15]?
**A.** 3.2%

**Q.** And the viability, T/C [16]?
**A.** 2.51%

**Q.** What about the viability, T/C (second compound 0.316 µM, first compound 0.316 µM) of the same molecule?
**A.** 3.39%

**Q.** And the viability, T/C (second compound 0.316 µM, first compound 1 µM)?
**A.** 3.61%

**Q.** What about the viability, T/C [17] of the same molecule?
**A.** 3.63%

**Q.** What about the viability, T/C [18] of the same molecule?
**A.** 3.54%

**Q.** What about the viability, T/C [19] of the same molecule?
**A.** 4.37%

**Q.** And the viability, T/C [20]?
**A.** 2.53%

**Q.** What about the viability, T/C (second compound 1 µM, first compound 0.316 µM) of the same molecule?
**A.** 2.07%

**Q.** What about the viability, T/C (second compound 1 µM, first compound 1 µM) of the same molecule?
**A.** 3.08%
